Experimental data taken from patent US20100292255A1, “Therapeutic Compounds and Their Use in Treating Diseases and Disorders” (Myriad Pharmaceuticals, Inc., priority 2007, published 2010).

Target: T1, purified human Hsp90
T1 construct: purified human Hsp90 (Stressgen, SPP-770)
Assay: Hsp90 binding assay: displacement of BODIPY-labeled geldanamycin measured by fluorescence polarization
Conditions: BODIPY-GM 10 nM, Hsp90 30 nM, overnight at room temperature; for IC50: read-out: GM displacement from purified Hsp90 measured by FP IC 50; for GM displacement from purified Hsp90 measured by FP Inhibition by 5 μM compd. (%): 5 μM compound
Procedure: Binding of the Example Compounds to purified Hsp90 was assayed by measuring the displacement of BODIPY-labeled geldanamycin (BODIPY-GM) from purified human Hsp90, using a fluorescence polarization assay adapted from Kim et al. (J. Biomolec. Screening, 9(5):375-381 (2004)). Compound dilutions (in 100% DMSO) were added to black-bottom 96-well plates (Greiner Bio-One, Monroe, N.C.) in 2% DMSO final, and equal volumes of BODIPY-GM (10 nM final) and purified human Hsp90 (Stressgen, SPP-770; 30 nM final) (Assay Designs, Ann Arbor, Mich.) in assay buffer (20 mM HEPES-KOH pH 7.3, 50 mM KCl, 5 mM MgCl2, 20 mM Na2MoO4, 0.01% NP-40, 0.1 mg/mL bovine gamma globulin [P2045; Invitrogen, Carlsbad, Calif.], 2 mM DTT) were added sequentially to yield a final volume of 50 microliters. Plates were incubated overnight at room temperature. Parallel and perpendicular fluorescence measurements were read (Analyst AD plate reader; LJL BioSystems, Middletown, Conn.) with excitation/emission wavelengths of 485/530 nm. Background fluorescence (buffer only) was subtracted, and fluorescence polarization (FP) values, expressed in mP units, were calculated from parallel and perpendicular fluorescence readings as follows:
FP=(parallel−perpendicular)/(parallel+perpendicular)*1000.
Percent inhibition was calculated by normalizing the FP values to those obtained in parallel reactions containing DMSO and subtracting these normalized values from 100%. Intrinsic compound fluorescence was independently monitored, and FP data points confounded by compound fluorescence were excluded from the analysis.

Structure (SMILES) | IC50 [nM] | GM displacement from purified Hsp90 measured by FP Inhibition by 5 μM compd. (%)
Nc1ncnc2c1nc(Sc1cc(O)c(O)cc1Br)n2CCC1CCN(C=O)CC1 [Example Compound 145, 4-(2-{6-Amino-8-[(2-bromo-4,5-dihydroxyphenyl)thio]-9H-purin-9-yl}ethyl)piperidine-1-carbaldehyde] | 600 | 
Nc1ncn(CCC2CCN(C=O)CC2)c2nc(Sc3cc(O)c(O)cc3Br)nc1-2 [Example Compound 146, 4-(2-{6-amino-8-[(2-bromo-4,5-dihydroxyphenyl)thio]-3H-purin-3-yl}ethyl)piperidine-1-carbaldehyde] |  | 87.0
Nc1ncnc2c1nc(Sc1cc3c(cc1Br)OCO3)n2CCC1CCNCC1 [Example Compound 147, 8-[(6-Bromo-1,3-benzodioxol-5-yl)thio]-9-(2-piperidin-4-ylethyl)-9H-purin-6-amine] | 470 | 
Nc1ncnc2c1nc(Sc1cc3c(cc1Br)OCO3)n2CCC1CCN(S(N)(=O)=O)CC1 [Example Compound 148, 4-(2-{6-Amino-8-[(6-bromo-1,3-benzodioxol-5-yl)thio]-9H-purin-9-yl}ethyl)piperidine-1-sulfonamide] | 400 | 
Nc1ncnc2c1nc(Sc1cc3c(cc1Br)OCO3)n2CCC1CCN(CCO)CC1 [Example Compound 149, 2-[4-(2-{6-Amino-8-[(6-bromo-1,3-benzodioxol-5-yl)thio]-9H-purin-9-yl}ethyl)piperidin-1-yl]ethanol] | 450 | 
Nc1ncnc2c1nc(Sc1cc3c(cc1Br)OCO3)n2CCC1CCN(CCCO)CC1 [Example Compound 150, 3-[4-(2-{6-Amino-8-[(6-bromo-1,3-benzodioxol-5-yl)thio]-9H-purin-9-yl}ethyl)piperidin-1-yl]propan-1-ol] | 600 | 
NC(=O)C[C@H](N)C(=O)N1CCC(CCn2c(Sc3cc4c(cc3Br)OCCO4)nc3c(N)ncnc32)CC1 [Example Compound 151, (3S)-3-Amino-4-[4-(2-{6-amino-8-[(7-bromo-2,3-dihydro-1,4-benzodioxin-6-yl)thio]-9H-purin-9-yl}ethyl)piperidin-1-yl]-4-oxobutanamide] | 57 | 
NC(=O)C[C@H](N)C(=O)N1CCC(CCn2c(Sc3cc4c(cc3Br)OCO4)nc3c(N)ncnc32)CC1 [Example Compound 152, (3S)-3-Amino-4-[4-(2-{6-amino-8-[(6-bromo-1,3-benzodioxol-5-yl)thio]-9H-purin-9-yl}ethyl)piperidin-1-yl]-4-oxobutanamide] | 114 | 
NC(=O)CCC(=O)N1CCC(CCn2c(Sc3cc4c(cc3Br)OCCO4)nc3c(N)ncnc32)CC1 [Example Compound 153, 4-[4-(2-{6-Amino-8-[(7-bromo-2,3-dihydro-1,4-benzodioxin-6-yl)thio]-9H-purin-9-yl}ethyl)piperidin-1-yl]-4-oxobutanamide] | 175 | 
Nc1ncnc2c1nc(Sc1cc3c(cc1Br)OCCO3)n2CCC1CCN(C2=NC(=O)CC2)CC1 [Example Compound 154, 5-[4-(2-{6-amino-8-[(7-bromo-2,3-dihydro-1,4-benzodioxin-6-yl)thio]-9H-purin-9-yl}ethyl)piperidin-1-yl]-3,4-dihydro-2H-pyrrol-2-one] | 105 | 
NC(=O)CCC(=O)N1CCC(CCn2c(Sc3cc4c(cc3Br)OCO4)nc3c(N)ncnc32)CC1 [Example Compound 155, 4-[4-(2-{6-Amino-8-[(6-bromo-1,3-benzodioxol-5-yl)thio]-9H-purin-9-yl}ethyl)piperidin-1-yl]-4-oxobutanamide] | 300 | 
Nc1ncnc2c1nc(Sc1cc3c(cc1Br)OCO3)n2CCC1CCN(C2=NC(=O)CC2)CC1 [Example Compound 156, 5-[4-(2-{6-amino-8-[(6-bromo-1,3-benzodioxol-5-yl)thio]-9H-purin-9-yl}ethyl)piperidin-1-yl]-3,4-dihydro-2H-pyrrol-2-one] | 160 | 
CS(=O)(=O)NCC(=O)N1CCC(CCn2c(Sc3cc4c(cc3Br)OCCO4)nc3c(N)ncnc32)CC1 [Example Compound 157, N-{2-[4-(2-{6-Amino-8-[(7-bromo-2,3-dihydro-1,4-benzodioxin-6-yl)thio]-9H-purin-9-yl}ethyl)piperidin-1-yl]-2-oxoethyl}methanesulfonamide] | 195 | 
CS(=O)(=O)NCC(=O)N1CCC(CCn2c(Sc3cc4c(cc3Br)OCO4)nc3c(N)ncnc32)CC1 [Example Compound 158, N-{2-[4-(2-{6-Amino-8-[(6-bromo-1,3-benzodioxol-5-yl)thio]-9H-purin-9-yl}ethyl)piperidin-1-yl]-2-oxoethyl}methanesulfonamide] | 360 | 
CC(=O)NCC(=O)N1CCC(CCn2c(Sc3cc4c(cc3Br)OCCO4)nc3c(N)ncnc32)CC1 [Example Compound 159, N-{2-[4-(2-{6-Amino-8-[(7-bromo-2,3-dihydro-1,4-benzodioxin-6-yl)thio]-9H-purin-9-yl}ethyl)piperidin-1-yl]-2-oxoethyl}acetamide] | 150 | 

Second part, the compound after the results:

IC50 [nM] | GM displacement from purified Hsp90 measured by FP Inhibition by 5 μM compd. (%) | Structure (SMILES)
200 |  | CC(=O)N[C@@H](C)C(=O)N1CCC(CCn2c(Sc3cc4c(cc3Br)OCCO4)nc3c(N)ncnc32)CC1 [Example Compound 160, N-{(1S)-2-[4-(2-{6-Amino-8-[(7-bromo-2,3-dihydro-1,4-benzodioxin-6-yl)thio]-9H-purin-9-yl}ethyl)piperidin-1-yl]-1-methyl-2-oxoethyl}acetamide]
140 |  | CC(=O)N[C@H](C)C(=O)N1CCC(CCn2c(Sc3cc4c(cc3Br)OCCO4)nc3c(N)ncnc32)CC1 [Example Compound 161, N-{(1R)-2-[4-(2-{6-Amino-8-[(7-bromo-2,3-dihydro-1,4-benzodioxin-6-yl)thio]-9H-purin-9-yl}ethyl)piperidin-1-yl]-1-methyl-2-oxoethyl}acetamide]
60 |  | Nc1ncnc2c1nc(Sc1cc3c(cc1Br)OCCO3)n2CCC1CCN(C(=O)CS)CC1 [Example Compound 162, 2-[4-(2-{6-Amino-8-[(7-bromo-2,3-dihydro-1,4-benzodioxin-6-yl)thio]-9H-purin-9-yl}ethyl)piperidin-1-yl]-2-oxoethanethiol]
205 |  | C[C@H](O)C(=O)N1CCC(CCn2c(Sc3cc4c(cc3Br)CCCC4)nc3c(N)ncnc32)CC1 [Example Compound 163, (2S)-1-[4-(2-{6-amino-8-[(3-bromo-5,6,7,8-tetrahydronaphthalen-2-yl)thio]-9H-purin-9-yl}ethyl)piperidin-1-yl]-1-oxopropan-2-ol]
240 |  | Cc1cc(Br)c(Sc2nc3c(N)ncnc3n2CCC2CCN(C(=O)[C@H](C)O)CC2)cc1C [Example Compound 165, (2S)-1-[4-(2-{6-amino-8-[(2-bromo-4,5-dimethylphenyl)thio]-9H-purin-9-yl}ethyl)piperidin-1-yl]-1-oxopropan-2-ol]
 | 75.0 | Cc1cc(Br)c(Sc2nc3c(N)ncn(CCC4CCN(C(=O)[C@H](C)O)CC4)c-3n2)cc1C [Example Compound 166, (2S)-1-[4-(2-{6-amino-8-[(2-bromo-4,5-dimethylphenyl)thio]-3H-purin-3-yl}ethyl)piperidin-1-yl]-1-oxopropan-2-ol]
42 |  | Nc1ncnc2c1nc(Sc1cc3c(cc1Br)CCO3)n2CCC1CCN(C=O)CC1 [Example Compound 167, 4-(2-{6-Amino-8-[(5-bromo-2,3-dihydro-1-benzofuran-6-yl)thio]-9H-purin-9-yl}ethyl)piperidine-1-carbaldehyde]
95 |  | Nc1ncnc2c1nc(Sc1cc3occc3cc1Br)n2CCC1CCN(C=O)CC1 [Example Compound 168, 4-(2-{6-Amino-8-[(5-bromo-1-benzofuran-6-yl)thio]-9H-purin-9-yl}ethyl)piperidine-1-carbaldehyde]
1900 |  | CC(C)(C)OC(=O)N1CCC(CCn2c(Sc3cc4c(cc3C=O)OCO4)nc3c(N)ncnc32)CC1 [Example Compound 169, tert-Butyl 4-(2-{6-amino-8-[(6-formyl-1,3-benzodioxol-5-yl)thio]-9H-purin-9-yl}ethyl)piperidine-1-carboxylate]
41 |  | COC(=O)c1cc2c(cc1Sc1nc3c(N)ncnc3n1CCC1CCN(C=O)CC1)OCO2 [Example Compound 170, Methyl 6-({6-amino-9-[2-(1-formylpiperidin-4-yl)ethyl]-9H-purin-8-yl}thio)-1,3-benzodioxole-5-carboxylate]
68 |  | CCOC(=O)c1cc2c(cc1Sc1nc3c(N)ncnc3n1CCC1CCN(C=O)CC1)OCO2 [Example Compound 171, ethyl 6-({6-amino-9-[2-(1-formylpiperidin-4-yl)ethyl]-9H-purin-8-yl}thio)-1,3-benzodioxole-5-carboxylate]
300 |  | CC(C)(C)OC(=O)N1CCC(CCn2c(Sc3cc4c(cc3Br)CCO4)nc3c(N)ncnc32)CC1 [Example Compound 172, tert-Butyl 4-(2-{6-amino-8-[(5-bromo-2,3-dihydro-1-benzofuran-6-yl)thio]-9H-purin-9-yl}ethyl)piperidine-1-carboxylate]
